Laboratory results reported in PMC2275798 (The Journal of biological chemistry, 2007).

What was measured:
[1] = target: T1, LSECtin carbohydrate-recognition domain (CRD) (Homo sapiens, UniProt Q6UXB4); format: binding
T1 sequence (Q6UXB4 160-293): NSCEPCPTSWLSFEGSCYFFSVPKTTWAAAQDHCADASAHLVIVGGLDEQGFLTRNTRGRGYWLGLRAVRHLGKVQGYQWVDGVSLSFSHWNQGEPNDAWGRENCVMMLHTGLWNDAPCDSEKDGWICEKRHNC

[2] = target: T1, LSECtin carbohydrate-recognition domain (CRD); format: binding; remark: listed apart in the source
[3] = target: T2, Ebola virus surface glycoprotein GP1 (Fc fusion) GP1 (Zaire ebolavirus, UniProt Q05320)
T2 chain: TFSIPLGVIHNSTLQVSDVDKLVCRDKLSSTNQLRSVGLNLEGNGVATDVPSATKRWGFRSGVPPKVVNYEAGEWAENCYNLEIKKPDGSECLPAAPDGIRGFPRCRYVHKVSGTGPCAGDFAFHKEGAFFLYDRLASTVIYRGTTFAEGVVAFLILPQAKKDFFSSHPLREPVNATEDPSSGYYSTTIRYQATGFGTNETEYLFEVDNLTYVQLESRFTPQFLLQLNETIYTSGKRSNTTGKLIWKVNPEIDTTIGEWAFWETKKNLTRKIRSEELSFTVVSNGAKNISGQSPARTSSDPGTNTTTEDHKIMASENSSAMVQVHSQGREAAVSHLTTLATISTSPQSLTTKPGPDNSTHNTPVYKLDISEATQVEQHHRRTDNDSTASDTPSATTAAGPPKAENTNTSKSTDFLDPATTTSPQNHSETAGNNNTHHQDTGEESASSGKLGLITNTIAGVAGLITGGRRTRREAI

Molecule: CC(=O)N[C@H]1[C@H](O[C@@H]2C(O)O[C@H](CO)[C@@H](O)[C@@H]2O)O[C@H](CO)[C@@H](O)[C@@H]1O (stereo partly drawn) [GlcNAcβ1-2Man]
- Ki [1]: 3500 nM

Molecule: OC[C@H]1O[C@H](OC[C@H]2OC(O)[C@@H](O)[C@@H](O[C@H]3O[C@H](CO)[C@@H](O)[C@H](O)[C@@H]3O)[C@@H]2O)[C@@H](O)[C@@H](O)[C@@H]1O (stereo partly drawn) [branched trimannose oligosaccharide]
- KI [2]: The branched trimannose oligosaccharide, which forms the core of the complex glycans

B1: LSECtin CRD (protein)
chain: FEGSCYFFSVPKTTWAAAQDHCADASAHLVIVGGLDEQGFLTRNTRGRGYWLGLRAVRHLGKVQGYQWVDGVSLSFSHWNQGEPNDAWGRENCVMMLHTGLWNDAPCDSEKDGWIC
- Kd [3]: 3.7 nM
